In US20250250559A1, “METHOD TO ANALYZE AND OPTIMIZE GENE EDITING MODULES AND DELIVERY APPROACHES” (Hoffmann-La Roche Inc., priority 2016, published 2025):
Several values for one entry are separate records, joined by “and”; a condition that tells them apart may be missing. Identical values can stand only once. Entries after “also recorded” stand apart in the source; their conditions may differ. Marks after values point to notes of the source that are not given here.

Tests used:
Type in all cases: cell-based, human
MCF-7 cells [1] = assay: PM resistant colony count of MCF-7 exposed to SCR7 and/or RS-1 during SpCas9-mediated DPH1 editing; settings: for mean PMr colonies #seeded cells: 80,000: SpCas9 Dph1 gRNA (20 mer); for mean PMr colonies #seeded cells: 80,000 / % PMr relative to DTr colonies: RS-1 8 μM, SCR7 1 μM; for % PMr relative to DTr colonies: SpCas9 Dph1 gRNA
Procedure: (§1) To evaluate and quantify the influence of DNA repair modulators on efficiency and specificity of gene editing, CRISPR/SpCAS9 and DPH1 targeting 20 mer gRNA was combined with compounds that modulate DNA repair mechanisms. The inhibitor Scr7 was applied either 4 hrs before transfection or 18 hrs after transfection of the gene editing modules until […] after transfection to inhibit DNA ligase IV.
SCR7 (1 μM final conc.) or RS-1 (8 μM final conc.) or SCR7+RS-1 (1 μM+8 μM final conc.) were added to MCF7 cells 4 hrs before transfection of the gene editing modules in the ‘early exposure’ setting. […]
(§2) The system upon which to determine the effects of DNA repair modulators consisted of the CRISPR/SpCas9 modules with DPH1 20 mer gRNA, transfected into MCF7 cells and subjected to subsequent DT and PM selection as described in the previous Examples. Frequencies of DTr, PMr, and double-resistant colonies were recorded to reflect gene inactivation and cassette integration events.

MCF-7 cells [2] = assay: DT resistant colony count of MCF-7 exposed to SCR7 and/or RS-1 during SpCas9-mediated DPH1 editing; settings: for mean DTr colonies #seeded cells: 40,000: SpCas9 Dph1 gRNA (20 mer), RS-1 8 μM, SCR7 1 μM; for mean DTr colonies #seeded cells: 40,000 / gRNA specific DT-r colonies (gRNA-scRNA) / Mean DT resistant colonies (4 × 40.000 seeded cells): compound added 4 hrs before transfection; for Mean DT resistant colonies (4 × 40.000 seeded cells): editing entity SpCas9-scRNA
Procedure: as §1
SCR7 (1 μM final conc.) or RS-1 (8 μM final conc.) or SCR7+RS-1 (1 μM+8 μM final conc.) were added to MCF7 cells 4 hrs before transfection of the gene editing modules in the ‘early exposure’ setting. For ‘late exposure’ SCR7 (8 µM final conc.) or RS-1 (1 μM final conc.) were added to MCF7 cells 18 hrs after transfection. In both settings, cells were exposed to the modulators until 96 hr after transfection, i.e. ‘early exposure’ consisted of a treatment for a total of 100 hrs, ‘late exposure’ for a total of 78 hrs.
as §2

MCF-7 cells [3] = assay: as above; settings: SpCas9 Dph1 gRNA (20 mer); compound added 18 hrs after transfection; RS-1 8 μM, SCR7 1 μM
MCF7 = assay: Viability (Promega CTG) assay; settings: 1 μM Scr7, 8 μM RS-1, 1 μM+8 μM combined
Procedure: The RAD51-stimulatory compound 1 (RS-1) was applied to modulate homologous recombination (HR) during gene editing. RS-1 (Sigma Aldrich) was dissolved in DMSO to generate a stock solution of 10 mg/ml, which was diluted in RPMI medium just before application to cells.
The DNA ligase IV inhibitor SCR7 was applied to modulate non-homologous end joining (NHEJ) during gene editing. SCR7 (Sigma) was dissolved in DMSO to generate a stock solution of 10 mg/ml, which was diluted in RPMI medium just before application to cells.

DPH2 gene [4] = assay: DT resistant colony count after DPH2 gene editing; settings: DPH2 assay (integr. vs. k.o.); for # of DT resistant colonies (40,000 seeded cells): MCF7, individual samples A-D
Procedure: (§3) MCF7 cells (Brooks, et al. 1973) were originally obtained from ATCC (subsequently propagated in an in-house cell bank) and maintained in RPMI […] medium supplemented with 10% FCS, 2 mM L-Glutamine and penicillin/streptomycin at 37° C. and 85% humidity. For transfection of plasmids harboring gene-editing modules, 3,000,000 cells were seeded in a 10 cm diameter culture dish and cultivated at 37° C. and humidified 5% CO2. 24 h after seeding, cells were transfected with 20 μg total DNA using JetPEI (Polyplus) according to the manufacturer's protocol but with an N/P ratio of 6:1. Transfection efficiency was determined after 24 h by flow cytometry (FACS Calibur, BD biosciences) of cells that were transfected with a modified eGFP expression plasmid (Zhang, et al. 1996).
(§4) Plasmids encoding CRISPR/Cas9 gene-editing entities (i.e. knock-out and integration systems) against Dph1 (gRNA target sequence: […] (SEQ ID NO: 01) derived from RefSeq: NM_001383) and Dph2 (gRNA target sequence: […] (SEQ ID NO: 02) derived from RefSeq: NM_001039589, NM_001384), and scrambled control (gRNA sequence: […] (SEQ ID NO: 03)) were obtained from OriGene. This system comprises one plasmid expressing a ˜100 nt gRNA under control of a U6 promoter as well as Cas9 nuclease under control of a CMV promoter and a Donor plasmid with a promoter-less GFP/PM expression cassette flanked by homologous arms to the target gene (Dph1 or Dph2). Additional Dph1 gRNA sequence variants of different sizes (OriGene) […]
(§5) MCF7 cells which have all chromosomal copies of DPH1 or DPH2 inactivated are resistant to diphtheria toxin (Stahl, et al. 2015). Thus, occurrence and frequency of toxin resistant cells/colonies upon CRISPR/Cas inflicted gene inactivation provides a measure for efficiency of inactivation of all gene copies. Therefore, MCF/cells were transfected as described in Example 1 with (i) a GFP expression plasmid as transfection control, (ii) the CRISPR/Cas9 Dph1 or Dph2 knock-out/integration system and (iii) knock-out/integration entities containing a scrambled gRNA to determine Cas9 independent integration frequencies. After determination of transfection efficiency, cells were seeded in 6-well plates. For quantification of homozygous knock-out events by DT 20000 cells were seeded and for quantification of integration events by PM or both events 40000 cells were seeded. RPMI medium was exchanged by RPMI medium containing DT or PM or both toxins 3 days after cell seeding. Exchange of medium was repeated every 2-3 days until all dead cells were removed from the plates and actively growing colonies could be detected via microscopic inspection. Thereafter (between day 12 and day 14 after start of toxin exposure), cells were washed 3 times with PBS and subsequently stained with ice cold methylene blue (0.2% in 50% EtOH). Methylene blue solution was subsequently removed and the plates were carefully washed under running water. Finally, cell colonies were counted under the microscope with a 5 mm grid foil.

DPH2 gene [5] = assay: PM resistant colony count after DPH2 gene editing; settings: DPH2 assay (integr. vs. k.o.); for # of PM resistant colonies (40,000 seeded cells): MCF7, individual samples A-D
Procedure: as §3, §4, §5
CRISPR/Cas module for targeted integration contains a puromycin (PM) resistance gene expression cassette without promoter to avoid transient expression. Thus, detection of integration of recombinant sequences into the genome was detected by determining sensitivity of cells towards PM. A concentration of […] PM (which quantitatively eliminates wildtype MCF7 cells) was applied to select MCF7 cells with stably integrated expression cassettes. PM-resistant colonies selected with the same procedure as described above for the DT selection and visualized and quantified (between 12 and 14 days after start of selection) in the same manner as described above for toxin resistant colonies. Number of PM resistant colonies obtained with non-target guide sequences (scrambled gRNA, FIG. 1) reflect the nonspecific integration background. […]

[6] = compound added 4 hrs before transfection
[7] = compound added 18 hrs after transfection
[8] = compound added 4 hr before transfection
[9] = compound added 18 hr after transfection
[10] = listed as Dph2 CRISPR Cas9 gRNA

In the case of `O=C(Nc1ccc(Br)cc1)c1ccc(Br)c(S(=O)(=O)NCc2ccccc2)c1` [RS-1, RAD51-stimulatory compound 1], the “mean PMr colonies #seeded cells: 80,000” value (MCF-7 cells [1]; [6]) is reported as 14, the “mean PMr colonies #seeded cells: 80,000” value (MCF-7 cells [1]; [7]) is reported as 15.3 and the “% PMr relative to DTr colonies” value (MCF-7 cells [1]; [7]) is reported as 3.0%. The “% PM resistant colonies relative to untreated control” value (MCF-7 cells [1]; [8]) was 165%*, the “gRNA specific PM-r colonies (gRNA-scRNA)” value (MCF-7 cells [1]; [6]) was 10.2 and the “% PM resistant colonies relative to untreated control” value (MCF-7 cells [1]; [9]) was 76%. For the same compound, the “mean DTr colonies #seeded cells: 40,000” value (MCF-7 cells [2]) was 201.5, the “% DT resistant colonies relative to untreated control” value (MCF-7 cells [2]; [8]) was 100% and the “gRNA specific DT-r colonies (gRNA-scRNA)” value (MCF-7 cells [2]) was 201.5. For the same compound, the “% DT resistant colonies relative to untreated control” value (MCF-7 cells [2]; [9]) was 100%, the “Mean DT resistant colonies (4 × 40.000 seeded cells)” value (MCF-7 cells [2]) was 0 and the “mean DTr colonies #seeded cells: 40,000” value (MCF-7 cells [3]) was 512.5. For the same compound, the “effect on the growth or viability of MCF7 cells at the applied dose” value (from here on “effect on the growth or viability”) (MCF7) was “no effect on the growth or viability; also recorded: does not inflict growth inhibitory or toxic effects”.
With SCR7 the “mean PMr colonies #seeded cells: 80,000” value (MCF-7 cells [1]; [6]) was 13.3, the “mean PMr colonies #seeded cells: 80,000” value (MCF-7 cells [1]; [7]) was 25 and the “% PMr relative to DTr colonies” value (MCF-7 cells [1]; [7]) was 5.1%. For the same compound, the “increase of the number of PMr colonies compared to untreated control” value (MCF-7 cells [1]; compound 4 hrs before until 72 hr after transfection) was “approx. 2 fold”, the “% PM resistant colonies relative to untreated control” value (MCF-7 cells [1]; [8]) was 156%* and the “gRNA specific PM-r colonies (gRNA-scRNA)” value (MCF-7 cells [1]; [6]) was 9.5. For the same compound, the “% PM resistant colonies relative to untreated control” value (MCF-7 cells [1]; [9]) was 125%, the “mean DTr colonies #seeded cells: 40,000” value (MCF-7 cells [2]) was 205.3 and the “% DT resistant colonies relative to untreated control” value (MCF-7 cells [2]; [8]) was 102%. For the same compound, the “gRNA specific DT-r colonies (gRNA-scRNA)” value (MCF-7 cells [2]) was 205.3, the “% DT resistant colonies relative to untreated control” value (MCF-7 cells [2]; [9]) was 95%* and the “Mean DT resistant colonies (4 × 40.000 seeded cells)” value (MCF-7 cells [2]) was 0. For the same compound, the “mean DTr colonies #seeded cells: 40,000” value (MCF-7 cells [3]) was 488.8, the “effect on the growth or viability” value (MCF7) was “does not inflict growth inhibitory or toxic effects” and the “effect on the growth or viability” value (MCF7; listed as Scr7) was “no effect on the growth or viability”.
“20 mer SpCas9 Dph2 gRNA: Plasmids encoding SpCas9 and Dph2 gRNA (target GATGTTTAGCAGCCCTGCCG, SEQ ID NO: 02) plus donor plasmid” was tested, and the “# of DT resistant colonies (40,000 seeded cells) (unheaded second sub-column: mean)” value (DPH2 gene [4]; MCF7) was 130, the “# of DT resistant colonies (40,000 seeded cells)” value (DPH2 gene [4]) was 162 and 227 (2×) and 215 and the “# of DT resistant colonies (40,000 seeded cells)” value (DPH2 gene [4]; [10]) was 162 and 227 (2×) and 215. For the same compound, the “# of PM resistant colonies (40,000 seeded cells) (unheaded second sub-column: mean)” value (DPH2 gene [5]; MCF7) was 1.5, the “# of PM resistant colonies (40,000 seeded cells)” value (DPH2 gene [5]) was 0 (2×) and 1 and 3 and the “# of PM resistant colonies (40,000 seeded cells)” value (DPH2 gene [5]; [10]) was 0 (2×) and 1 and 3.
